Assay results: US4470993A, “Therapeutical use of known 5-aminomethyl oxazolidine-2-one derivatives” (Delalande S.A., priority 1982, dated 1984)

Assays:
[1] = Acute toxicity, oral, in mice (Miller and Tainter); details: mouse, in vivo, read-out: Acute toxicity LD 50
Procedure: The acute toxicity is determined orally on mice according to the method described by MILLER and TAINTER in Proc. Soc. Exp. Biol. Med. 57, 261 (1944).

A type monoamine oxidase = assay: Ex vivo monoamine oxidase inhibition in rat brain homogenate, serotonine substrate; design: unit not given here; details: rats, 5 mg/kg p.o.; for Monoamine oxidase inhibition effect, A Type monoamine oxidase, 8 hours: 8 hours after administration; for Monoamine oxidase inhibition effect, A Type monoamine oxidase, 24 hours: 24 hours after administration; for Monoamine oxidase inhibition effect, A Type monoamine oxidase, max.: maximum effect observed between 30 minutes and 8 hours
Procedure: (§1) This activity has been shown ex vivo on rats to which are orally administered the compounds employed in the invention as a 0.5% suspension in methylcellulose. Then the rats are decapitated at various times (30 mn, 1 hour, 2 hours, 4 hours, 8 hours and 24 hours after the administration). The brains are taken up, weighed and homogeneized and the determination of the monoamine oxidase inhibition effect is carried out by using serotonine (specific substrate of the A type monoamine oxidase) and phenylethylamine (specific substrate of B type monoamine oxidase) according to the method described by J. P. KAN and M. STROLIN-BENEDETTI in Life Sciences 26, 2165 (1980).
(§2) To illustrate the invention, in table below the results thus obtained are given. (The maximum effect is that observed between 30 minutes and 8 hours).

B type monoamine oxidase = assay: Ex vivo monoamine oxidase inhibition in rat brain homogenate, phenylethylamine substrate; design: unit not given here; details: rats, 5 mg/kg p.o.; for Monoamine oxidase inhibition effect, B Type monoamine oxidase, 8 hours: 8 hours after administration; for Monoamine oxidase inhibition effect, B Type monoamine oxidase, 24 hours: 24 hours after administration; for Monoamine oxidase inhibition effect, B Type monoamine oxidase, max.: maximum effect observed between 30 minutes and 8 hours
Procedure: as §1, §2

NCC1CN(c2ccc(OCC3CCCCC3)cc2)C(=O)O1 (stereo not shown) [cyclohexylmethyl, amino]
LD50 [1]: > 2000 mg/kg | Monoamine oxidase inhibition effect, A Type monoamine oxidase, 8 hours (A type monoamine oxidase): 13 | Monoamine oxidase inhibition effect, A Type monoamine oxidase, 24 hours (A type monoamine oxidase): 5 | Monoamine oxidase inhibition effect, A Type monoamine oxidase, max. (A type monoamine oxidase): 23 | Monoamine oxidase inhibition effect, B Type monoamine oxidase, 8 hours (B type monoamine oxidase): 60 | Monoamine oxidase inhibition effect, B Type monoamine oxidase, 24 hours (B type monoamine oxidase): 3 | Monoamine oxidase inhibition effect, B Type monoamine oxidase, max. (B type monoamine oxidase): 81

CNCC1CN(c2ccc(OCc3ccccc3)cc2)C(=O)O1 (stereo not shown) [benzyl, N--methylamino]
LD50 [1]: > 2000 mg/kg | Monoamine oxidase inhibition effect, A Type monoamine oxidase, 8 hours (A type monoamine oxidase): 11 | Monoamine oxidase inhibition effect, A Type monoamine oxidase, 24 hours (A type monoamine oxidase): 10 | Monoamine oxidase inhibition effect, A Type monoamine oxidase, max. (A type monoamine oxidase): 23 | Monoamine oxidase inhibition effect, B Type monoamine oxidase, 8 hours (B type monoamine oxidase): 43 | Monoamine oxidase inhibition effect, B Type monoamine oxidase, 24 hours (B type monoamine oxidase): 31 | Monoamine oxidase inhibition effect, B Type monoamine oxidase, max. (B type monoamine oxidase): 78

CNCC1CN(c2ccc(OCc3cccc(Cl)c3)cc2)C(=O)O1 (stereo not shown) [m-chlorobenzyl, N--methylamino]
LD50 [1]: > 2000 mg/kg | Monoamine oxidase inhibition effect, A Type monoamine oxidase, 8 hours (A type monoamine oxidase): 12 | Monoamine oxidase inhibition effect, A Type monoamine oxidase, 24 hours (A type monoamine oxidase): 1 | Monoamine oxidase inhibition effect, A Type monoamine oxidase, max. (A type monoamine oxidase): 28 | Monoamine oxidase inhibition effect, B Type monoamine oxidase, 8 hours (B type monoamine oxidase): 67 | Monoamine oxidase inhibition effect, B Type monoamine oxidase, 24 hours (B type monoamine oxidase): 27 | Monoamine oxidase inhibition effect, B Type monoamine oxidase, max. (B type monoamine oxidase): 83

CC(C)CCOc1ccc(N2CC(CN)OC2=O)cc1 (stereo not shown) [3-methylbutyl, amino]
LD50 [1]: > 2000 mg/kg | Monoamine oxidase inhibition effect, A Type monoamine oxidase, 8 hours (A type monoamine oxidase): 2 | Monoamine oxidase inhibition effect, A Type monoamine oxidase, 24 hours (A type monoamine oxidase): 0 | Monoamine oxidase inhibition effect, A Type monoamine oxidase, max. (A type monoamine oxidase): 29 | Monoamine oxidase inhibition effect, B Type monoamine oxidase, 8 hours (B type monoamine oxidase): 8 | Monoamine oxidase inhibition effect, B Type monoamine oxidase, 24 hours (B type monoamine oxidase): 1 | Monoamine oxidase inhibition effect, B Type monoamine oxidase, max. (B type monoamine oxidase): 69

NCC1CN(c2ccc(OCC3CCCC3)cc2)C(=O)O1 (stereo not shown) [cyclopentylmethyl, amino]
LD50 [1]: > 2000 mg/kg | Monoamine oxidase inhibition effect, A Type monoamine oxidase, 8 hours (A type monoamine oxidase): 9 | Monoamine oxidase inhibition effect, A Type monoamine oxidase, 24 hours (A type monoamine oxidase): 0 | Monoamine oxidase inhibition effect, A Type monoamine oxidase, max. (A type monoamine oxidase): 30 | Monoamine oxidase inhibition effect, B Type monoamine oxidase, 8 hours (B type monoamine oxidase): 17 | Monoamine oxidase inhibition effect, B Type monoamine oxidase, 24 hours (B type monoamine oxidase): 2 | Monoamine oxidase inhibition effect, B Type monoamine oxidase, max. (B type monoamine oxidase): 78

NCC1CN(c2ccc(OCc3cccc(Cl)c3)cc2)C(=O)O1 (stereo not shown) [m-chlorobenzyl, amino]
LD50 [1]: > 2000 mg/kg | Monoamine oxidase inhibition effect, A Type monoamine oxidase, 8 hours (A type monoamine oxidase): 18 | Monoamine oxidase inhibition effect, A Type monoamine oxidase, 24 hours (A type monoamine oxidase): 6 | Monoamine oxidase inhibition effect, A Type monoamine oxidase, max. (A type monoamine oxidase): 30 | Monoamine oxidase inhibition effect, B Type monoamine oxidase, 8 hours (B type monoamine oxidase): 85 | Monoamine oxidase inhibition effect, B Type monoamine oxidase, 24 hours (B type monoamine oxidase): 67 | Monoamine oxidase inhibition effect, B Type monoamine oxidase, max. (B type monoamine oxidase): 88

CNCC1CN(c2ccc(OCc3ccc(F)cc3)cc2)C(=O)O1 (stereo not shown) [p-fluorobenzyl, N--methylamino]
LD50 [1]: > 2000 mg/kg | Monoamine oxidase inhibition effect, A Type monoamine oxidase, 8 hours (A type monoamine oxidase): 23 | Monoamine oxidase inhibition effect, A Type monoamine oxidase, 24 hours (A type monoamine oxidase): 0 | Monoamine oxidase inhibition effect, A Type monoamine oxidase, max. (A type monoamine oxidase): 44 | Monoamine oxidase inhibition effect, B Type monoamine oxidase, 8 hours (B type monoamine oxidase): 63 | Monoamine oxidase inhibition effect, B Type monoamine oxidase, 24 hours (B type monoamine oxidase): 27 | Monoamine oxidase inhibition effect, B Type monoamine oxidase, max. (B type monoamine oxidase): 85

NCC1CN(c2ccc(OCc3ccccc3)cc2)C(=O)O1 (stereo not shown) [benzyl, amino]
LD50 [1]: > 2000 mg/kg | Monoamine oxidase inhibition effect, A Type monoamine oxidase, 8 hours (A type monoamine oxidase): 4 | Monoamine oxidase inhibition effect, A Type monoamine oxidase, 24 hours (A type monoamine oxidase): 4 | Monoamine oxidase inhibition effect, A Type monoamine oxidase, max. (A type monoamine oxidase): 19 | Monoamine oxidase inhibition effect, B Type monoamine oxidase, 8 hours (B type monoamine oxidase): 69 | Monoamine oxidase inhibition effect, B Type monoamine oxidase, 24 hours (B type monoamine oxidase): 45 | Monoamine oxidase inhibition effect, B Type monoamine oxidase, max. (B type monoamine oxidase): 85

NCC1CN(c2ccc(OCc3ccc(F)cc3)cc2)C(=O)O1 (stereo not shown) [p-fluorobenzyl, amino]
LD50 [1]: > 2000 mg/kg | Monoamine oxidase inhibition effect, A Type monoamine oxidase, 8 hours (A type monoamine oxidase): 20 | Monoamine oxidase inhibition effect, A Type monoamine oxidase, 24 hours (A type monoamine oxidase): 3 | Monoamine oxidase inhibition effect, A Type monoamine oxidase, max. (A type monoamine oxidase): 43 | Monoamine oxidase inhibition effect, B Type monoamine oxidase, 8 hours (B type monoamine oxidase): 82 | Monoamine oxidase inhibition effect, B Type monoamine oxidase, 24 hours (B type monoamine oxidase): 61 | Monoamine oxidase inhibition effect, B Type monoamine oxidase, max. (B type monoamine oxidase): 88

CNCC1CN(c2ccc(OCC3CCCCC3)cc2)C(=O)O1 (stereo not shown) [cyclohexylmethyl, N--methylamino]
LD50 [1]: > 2000 mg/kg | Monoamine oxidase inhibition effect, A Type monoamine oxidase, 8 hours (A type monoamine oxidase): 17 | Monoamine oxidase inhibition effect, A Type monoamine oxidase, 24 hours (A type monoamine oxidase): 6 | Monoamine oxidase inhibition effect, A Type monoamine oxidase, max. (A type monoamine oxidase): 21 | Monoamine oxidase inhibition effect, B Type monoamine oxidase, 8 hours (B type monoamine oxidase): 42 | Monoamine oxidase inhibition effect, B Type monoamine oxidase, 24 hours (B type monoamine oxidase): 6 | Monoamine oxidase inhibition effect, B Type monoamine oxidase, max. (B type monoamine oxidase): 67
